The values that follow are results of earlier work, collected in article PMC5693832 (Ophthalmology and Therapy, 2017).

One data set deals with platelets. The settings on record: humans.
The next data set deals with IOP. The following applies: 0.024%, summary of the clinical trials.
Data set [1] relates to IOP in healthy Japanese subjects. The settings on record: 0.024% once daily for 14 days.
Data set [2] deals with diurnal IOP in POAG or OHT patients. The following applies: 0.006% to 0.040%, 28 days.
For data set [3], the system named is IOP in Japanese subjects with POAG or OHT. The settings on record: 0.024% every evening.
The subject of data set [4] is IOP over a 24-h diurnal time period. The settings on record: for IOP reduction over the 24 h period, in words: 24-h diurnal period.

Turning to `CC(=O)Oc1ccccc1C(=O)Oc1cccc(CO[N+](=O)[O-])c1` [NCX 4016, 2-(acetyloxy)benzoic acid-3-[(nitrooxy)methyl]phenyl ester], the “NO release after oral administration” value with platelets was “capable of releasing NO”.
Regarding `O=C(CCC/C=C\C[C@@H]1[C@@H](CC[C@@H](O)CCc2ccccc2)[C@H](O)C[C@@H]1O)OCCCCO[N+](=O)[O-]` [latanoprostene bunod], the “additional IOP reduction versus latanoprost and timolol monotherapy” value in the data set with IOP is recorded as 1–2 mmHg. For the same compound, in data set [1], the “most common adverse events” value is “punctate keratitis and conjunctival hyperemia”; the “severity of adverse events” value is on record as “mild”. For the same compound, in data set [2], the “adverse events (pupil dilation, blurred vision)” value is “neither pupil dilation nor blurred vision were reported as adverse events” and the “efficacy (change from baseline mean diurnal IOP), dose relation” value was “dose-dependent”. The “IOP (SD) at 52 weeks” value in data set [3] is 14.4 (2.7) mmHg. In addition, the “IOP reduction by 52 weeks from baseline” value in data set [3] (baseline 19.6 (2.9) mmHg) is on record as 26%. Further, the “IOP reduction over the 24 h period, in words” value in data set [4] was “sustained IOP reduction during the 24 h period”. Moreover, the “post treatment mean IOP (SD), nighttime” value in data set [4] (nighttime, baseline 25.7 (3.8) mmHg) was 23.2 (3.4) mmHg.
For `CC(C)(C)NC[C@H](O)COc1nsnc1N1CCOCC1` [timolol], in data set [4], the “IOP reduction over the 24 h period, in words” value is given as “primarily effective during the daytime”.
